According to patent publication US10344017B2, “Pyrrolcarboxamide derivatives for the inhibition of ERK5” (CANCER RESEARCH TECHNOLOGY LIMITED, priority 2014, dated 2019):

Each compound was assayed against T1, ERK5 (Homo sapiens, UniProt Q13164) (assay: ERK5 IMAP assay (fluorescence polarisation)). Conditions: average (e.g. geometric mean) where more than one data point; read-out: ERK5 IC50.
T1 construct: made in house
Type: biochemical

T1 sequence (Q13164 whole entry): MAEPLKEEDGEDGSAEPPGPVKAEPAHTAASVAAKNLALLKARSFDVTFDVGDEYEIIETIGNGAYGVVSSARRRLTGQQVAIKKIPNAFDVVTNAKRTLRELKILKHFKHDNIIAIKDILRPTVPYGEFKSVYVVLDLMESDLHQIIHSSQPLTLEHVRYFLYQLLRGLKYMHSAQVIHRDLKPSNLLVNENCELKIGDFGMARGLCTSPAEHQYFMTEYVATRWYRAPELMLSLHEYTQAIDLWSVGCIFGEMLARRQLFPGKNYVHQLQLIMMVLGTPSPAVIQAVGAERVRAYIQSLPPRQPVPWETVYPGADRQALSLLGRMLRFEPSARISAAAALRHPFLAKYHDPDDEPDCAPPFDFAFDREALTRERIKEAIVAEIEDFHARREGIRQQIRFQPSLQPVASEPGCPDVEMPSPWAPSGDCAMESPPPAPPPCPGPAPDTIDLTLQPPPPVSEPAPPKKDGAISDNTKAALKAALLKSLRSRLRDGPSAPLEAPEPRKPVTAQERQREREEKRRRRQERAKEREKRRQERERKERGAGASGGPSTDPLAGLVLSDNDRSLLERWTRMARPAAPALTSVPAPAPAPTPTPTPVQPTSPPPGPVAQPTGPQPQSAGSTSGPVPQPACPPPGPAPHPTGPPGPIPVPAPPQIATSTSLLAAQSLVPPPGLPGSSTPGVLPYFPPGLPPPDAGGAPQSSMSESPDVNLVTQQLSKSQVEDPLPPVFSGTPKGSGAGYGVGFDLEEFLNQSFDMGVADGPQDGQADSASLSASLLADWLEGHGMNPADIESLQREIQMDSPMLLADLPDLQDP

| SMILES | IC50 |
| --- | --- |
| COc1ccc(Cl)c(C(=O)c2c[nH]c(C(=O)Nc3cnn(Cc4ccncc4)c3)c2)c1F [Example 67] | 16.3 nM |
| O=C(Nc1cncnc1)c1cc(C(=O)c2c(Cl)ccc(Br)c2F)c[nH]1 [Example 182, 4-(3-Bromo-6-chloro-2-fluorobenzoyl)-N-(pyrimidin-5-yl)-1H-pyrrole-2-carboxamide] | 606 nM |
| O=C(Nc1ccc[n+]([O-])c1)c1cc(C(=O)c2c(F)cccc2F)c[nH]1 [Example 128, 3-(4-(2,6-Difluorobenzoyl)-1H-pyrrole-2-carboxamido)pyridine 1-oxide] | 13800 nM |
| O=C(Nc1cnn(C2CCOC2)c1)c1cc(C(=O)c2c(Cl)ccc(Cl)c2F)c[nH]1 (centres unmarked) [Example 240, 4-(3,6-Dichloro-2-fluorobenzoyl)-N-(1-(tetrahydrofuran-3-yl)-1H-pyrazol-4-yl)-1H-pyrrole-2-carboxamide] | 127 nM |
| Cn1cc(NC(=O)c2cc(C(=O)c3c(Cl)ccc(OC4CCOC4)c3F)c[nH]2)cn1 (centres unmarked) [Example 261, 4-(6-Chloro-2-fluoro-3-((tetrahydrofuran-3-yl)oxy)benzoyl)-N-(1-methyl-1H-pyrazol-4-yl)-1H-pyrrole-2-carboxamide] | 553 nM |
| Cc1ccc(F)c(C(=O)c2c[nH]c(C(=O)Nc3cccnc3)c2)c1Cl [Example 175, 4-(2-Chloro-6-fluoro-3-methylbenzoyl)-N-(pyridin-3-yl)-1H-pyrrole-2-carboxamide] | 649 nM |
| Cn1cc(NC(=O)c2cc(C(=O)c3c(F)cccc3Cl)c[nH]2)cn1 [Example 269, 4-(2-Chloro-6-fluorobenzoyl)-N-(1-methyl-1H-pyrazol-4-yl)-1H-pyrrole-2-carboxamide] | 777 nM |
| CNCc1ccc(F)c(C(=O)c2c[nH]c(C(=O)Nc3cccnc3)c2)c1F [Example 274, 4-(2,6-difluoro-3-((methylamino)methyl)benzoyl)-N-(pyridin-3-yl)-1H-pyrrole-2-carboxamide] | 3640 nM |
| CCc1cccc(F)c1C(=O)c1c[nH]c(C(=O)Nc2cccnc2)c1 [Example 199, 4-(2-Ethyl-6-fluorobenzoyl)-N-(pyridin-3-yl)-1H-pyrrole-2-carboxamide] | 12700 nM |
| C=C(C)c1ccc(F)c(C(=O)c2c[nH]c(C(=O)Nc3cccnc3)c2)c1F [Example 168, 4-(2,6-Difluoro-3-(prop-1-en-2-yl)benzoyl)-N-(pyridin-3-yl)-1H-pyrrole-2-carboxamide] | 2450 nM |
| CN1CCC(NC(=O)c2cc(C(=O)c3c(F)ccc(F)c3F)c[nH]2)CC1 [Example 209, N-(1-Methylpipendin-4-yl)-4-(2,3,6-trifluorobenzoyl)-1H-pyrrole-2-carboxamide] | 569 nM |
| Cc1ccc(F)c(C(=O)c2c[nH]c(C(=O)Nc3cccnc3)c2)c1F [Example 217, 4-(2.6-Difluoro-3-methylbenzoyl)-N-(pyridin-3-yl)-1H-pyrrole-2-carboxamide] | 660 nM |
| O=C(NC1CCN(C(=O)C(F)(F)F)CC1)c1cc(C(=O)c2c(Cl)ccc(Cl)c2F)c[nH]1 [Example 11, 4-(3,6-Dichloro-2-fluorobenzoyl)-N-(1-(2,2,2-trifluoroacetyl)piperidin-4-yl)-1H-pyrrole-2-carboxamide] | 521 nM |
| O=C(NC1CCNC1)c1cc(C(=O)c2c(F)cccc2F)c[nH]1 (centres unmarked) [Example 125, 4-(2,6-Difluorobenzoyl)-N-(pyrrolidin-3-yl)-1H-pyrrole-2-carboxamide] | 31000 nM |
| Cc1ccc(F)c(C(=O)c2c[nH]c(C(=O)NC3CCN(C)CC3)c2)c1 [Example 234, 4-(2-Fluoro-5-methylbenzoyl)-N-(1-methylpiperidin-4-yl)-1H-pyrrole-2-carboxamide] | 4370 nM |
| Cc1cccc(F)c1C(=O)c1c[nH]c(C(=O)Nc2ccncc2)c1 [Example 185, 4-(2-Fluoro-6-methylbenzoyl)-N-(pyridin-4-yl)-1H-pyrrole-2-carboxamide] | 1900 nM |
| O=C(Nc1ccc2cn[nH]c2c1)c1cc(C(=O)c2c(F)cccc2Cl)c[nH]1 [Example 156, 4-(2-Chloro-6-fluorobenzoyl)-N-(1H-indazol-6-yl)-1H-pyrrole-2-carboxamide] | 1540 nM |
| Cc1ccc(F)c(C(=O)c2c[nH]c(C(=O)NC3CCN(C)CC3)c2)c1Cl [Example 177, 4-(2-Chloro-6-fluoro-3-methylbenzoyl)-N-(1-methylpiperidin-4-yl)-1H-pyrrole-2-carboxamide] | 472 nM |
| CCOc1ccc(Cl)c(C(=O)c2c[nH]c(C(=O)Nc3cccnc3)c2)c1F [Example 256, 4-(6-Chloro-3-ethoxy-2-fluorobenzoyl)-N-(pyridin-3-yl)-1H-pyrrole-2-carboxamide] | 116 nM |
| CC(C)(C)OC(=O)N1CCC(NC(=O)c2cc(C(=O)c3c(F)cccc3Br)c[nH]2)CC1 [Example 196, tert-Butyl 4-(4-(2-bromo-6-fluorobenzoyl)-1H-pyrrole-2-carboxamido)piperidine-1-carboxylate] | 2720 nM |
| O=C(Nc1cncnc1)c1cc(C(=O)c2cc(Cl)ccc2F)c[nH]1 [Example 229, 4-(5-Chloro-2-fluorobenzoyl)-N-(pyrimidin-5-yl)-1H-pyrrole-2-carboxamide] | 2060 nM |
| CN1CCC(Nc2ncc(NC(=O)c3cc(C(=O)c4c(F)cccc4Cl)c[nH]3)cn2)CC1 [Example 23, 4-(2-Chloro-6-fluorobenzoyl)-N-(2-((1-methylpiperidin-4-yl)amino)pyrimidin-5-yl)-1H-pyrrole-2-carboxamide] | 93 nM |
| Cc1ncc(NC(=O)c2cc(C(=O)c3c(F)cccc3Br)c[nH]2)cn1 [Example 155, 4-(2-Bromo-6-fluorobenzoyl)-N-(2-methylpyrimidin-5-yl)-1H-pyrrole-2-carboxamide] | 1190 nM |
| Cc1cc(NC(=O)c2cc(C(=O)c3c(F)cccc3Br)c[nH]2)ccn1 [Example 137, 4-(2-Bromo-6-fluorobenzoyl)-N-(2-methylpyridin-4-yl)-1H-pyrrole-2-carboxamide] | 1080 nM |
| O=C(Nc1cccnc1)c1cc(C(=O)c2c(F)ccc(Cl)c2Cl)c[nH]1 [Example 169, 4-(2,3-Dichloro-6-fluorobenzoyl)-N-(pyridin-3-yl)-1H-pyrrole-2-carboxamide] | 265 nM |
| Cc1ncccc1NC(=O)c1cc(C(=O)c2c(Cl)ccc(Cl)c2F)c[nH]1 [Example 81, 4-(3,6-Dichloro-2-fluorobenzoyl)-N-(2-methylpyridin-3-yl)-1H-pyrrole-2-carboxamide] | 394 nM |
| C=Cc1ccc(F)c(C(=O)c2c[nH]c(C(=O)NC3CCN(C)CC3)c2)c1F [Ex 167] | 643 nM |
| O=C(Nc1cnc(N2CCCC2)nc1)c1cc(C(=O)c2c(F)cccc2Cl)c[nH]1 [Example 14, 4-(2-Chloro-6-fluorobenzoyl)-N-(2-(pyrrolidin-1-yl)pyrimidin-5-yl)-1H-pyrrole-2-carboxamide] | 4110 nM |

More lines, in order of falling IC50, values ahead:

| IC50 | SMILES |
| --- | --- |
| 3550 nM | O=C(Nc1cnn(C2CCN(CC(F)(F)F)CC2)c1)c1cc(C(=O)c2c(Cl)ccc(Cl)c2F)c[nH]1 [Example 42, 4-(3,6-Dichloro-2-fluorobenzoyl)-N-(1-(1-(2,2,2-trifluoroethyl)piperidin-4-yl)-1H-pyrazol-4-yl)-1H-pyrrole-2-carboxamide] |
| 2480 nM | Cc1cc(NC(=O)c2cc(C(=O)c3c(Cl)ccc(Cl)c3F)c[nH]2)no1 [Example 58, 4-(3,6-Dichloro-2-fluorobenzoyl)-N-(5-methylisoxazol-3-yl)-1H-pyrrole-2-carboxamide] |
| 1580 nM | C=Cc1ccc(F)c(C(=O)c2c[nH]c(C(=O)Nc3cccnc3)c2)c1F [Example 165, 4-(2,6-Difluoro-3-vinylbenzoyl)-N-(pyridin-3-yl)-1H-pyrrole-2-carboxamide] |
| 554 nM | O=C(Nc1cncnc1)c1cc(C(=O)c2c(Cl)ccc(F)c2F)c[nH]1 [Example 222, 4-(6-Chloro-2,3-difluorobenzoyl)-N-(pyrimidin-5-yl)-1H-pyrrole-2-carboxamide] |
| 523 nM | O=C(Nc1ccnc(N2CCCC2)c1)c1cc(C(=O)c2c(F)cccc2Cl)c[nH]1 [Example 35, 4-(2-Chloro-6-fluorobenzoyl)-N-(2-(pyrrolidin-1-yl)pyridin-4-yl)-1H-pyrrole-2-carboxamide] |
| 439 nM | O=C(Nc1ccnnc1)c1cc(C(=O)c2c(F)cccc2Cl)c[nH]1 [Example 138, 4-(2-Chloro-6-fluorobenzoyl)-N-(pyridazin-4-yl)-1H-pyrrole-2-carboxamide] |
| 437 nM | CCN1CCC(NC(=O)c2cc(C(=O)c3c(F)cccc3Cl)c[nH]2)CC1 [Example 5, 4-(2-Chloro-6-fluorobenzoyl)-N-(1-ethylpiperidin-4-yl)-1H-pyrrole-2-carboxamide] |
| 289 nM | CN1CCC(NC(=O)c2cc(C(=O)c3c(F)cccc3Br)c[nH]2)CC1 [Example 195, 4-(2-Bromo-6-fluorobenzoyl)-N-(1-methylpiperidin-4-yl)-1H-pyrrole-2-carboxamide] |
| 173 nM | COc1ccc(F)c(C(=O)c2c[nH]c(C(=O)NC3CCN(C)CC3)c2)c1Cl [Example 71, 4-(2-chloro-6-fluoro-3-methoxybenzoyl)-N-(1-methylpiperidin-4-yl)-1H-pyrrole-2-carboxamide] |
| 155 nM | O=C(NC1CCNCC1)c1cc(C(=O)c2c(Cl)ccc(F)c2F)c[nH]1 [Example 224, 4-(6-Chloro-2,3-difluorobenzoyl)-N-(piperidin-4-yl)-1H-pyrrole-2-carboxamide] |
| 115 nM | CS(=O)(=O)CCNc1ncc(NC(=O)c2cc(C(=O)c3c(Cl)ccc(Cl)c3F)c[nH]2)cn1 [Example 101, 4-(3,6-Dichloro-2-fluorobenzoyl)-N-(2-((2-(methylsulfonyl)ethyl)amino)pyrimidin-5-yl)-1H-pyrrole-2-carboxamide] |
| 53 nM | O=C(Nc1cnc(CN2CCOCC2)nc1)c1cc(C(=O)c2c(Cl)ccc(Cl)c2F)c[nH]1 [Example 242, 4-(3,6-Dichloro-2-fluorobenzoyl)-N-(2-(morpholinomethyl)pyrimidin-5-yl)-1H-pyrrole-2-carboxamide] |
| 19.9 nM | COc1ccc(Cl)c(C(=O)c2c[nH]c(C(=O)Nc3cnn(CC4CCN(C)CC4)c3)c2)c1F [Example 68, 4-(6-Chloro-2-fluoro-3-methoxybenzoyl)-N-(1-((1-methylpiperidin-4-yl)methyl)-1H-pyrazol-4-yl)-1H-pyrrole-2-carboxamide] |
